From US20240174718A1, “RYANODINE RECEPTOR INHIBITOR COMPOUNDS AND METHODS RELATING THERETO” (Vanderbilt University, priority 2022, published 2024)
Like-named read-outs stand apart in the source and are kept apart here.

How the values were obtained:
[1] = biological target: T1, RyR2 (Mus musculus, UniProt E9Q401); test: Calcium spark frequency in permeabilized Casq2 knockout cardiomyocytes (screen for RyR2 activity); type: cell-based
T1 construct: spontaneous openings of intracellular RyR2 Ca^2+ release channels; endogenous in cells; host or cells: ventricular cardiomyocytes isolated from Casq2-/- mice (saponin-permeabilized in A1, intact in A7)
T1 sequence (E9Q401 whole entry): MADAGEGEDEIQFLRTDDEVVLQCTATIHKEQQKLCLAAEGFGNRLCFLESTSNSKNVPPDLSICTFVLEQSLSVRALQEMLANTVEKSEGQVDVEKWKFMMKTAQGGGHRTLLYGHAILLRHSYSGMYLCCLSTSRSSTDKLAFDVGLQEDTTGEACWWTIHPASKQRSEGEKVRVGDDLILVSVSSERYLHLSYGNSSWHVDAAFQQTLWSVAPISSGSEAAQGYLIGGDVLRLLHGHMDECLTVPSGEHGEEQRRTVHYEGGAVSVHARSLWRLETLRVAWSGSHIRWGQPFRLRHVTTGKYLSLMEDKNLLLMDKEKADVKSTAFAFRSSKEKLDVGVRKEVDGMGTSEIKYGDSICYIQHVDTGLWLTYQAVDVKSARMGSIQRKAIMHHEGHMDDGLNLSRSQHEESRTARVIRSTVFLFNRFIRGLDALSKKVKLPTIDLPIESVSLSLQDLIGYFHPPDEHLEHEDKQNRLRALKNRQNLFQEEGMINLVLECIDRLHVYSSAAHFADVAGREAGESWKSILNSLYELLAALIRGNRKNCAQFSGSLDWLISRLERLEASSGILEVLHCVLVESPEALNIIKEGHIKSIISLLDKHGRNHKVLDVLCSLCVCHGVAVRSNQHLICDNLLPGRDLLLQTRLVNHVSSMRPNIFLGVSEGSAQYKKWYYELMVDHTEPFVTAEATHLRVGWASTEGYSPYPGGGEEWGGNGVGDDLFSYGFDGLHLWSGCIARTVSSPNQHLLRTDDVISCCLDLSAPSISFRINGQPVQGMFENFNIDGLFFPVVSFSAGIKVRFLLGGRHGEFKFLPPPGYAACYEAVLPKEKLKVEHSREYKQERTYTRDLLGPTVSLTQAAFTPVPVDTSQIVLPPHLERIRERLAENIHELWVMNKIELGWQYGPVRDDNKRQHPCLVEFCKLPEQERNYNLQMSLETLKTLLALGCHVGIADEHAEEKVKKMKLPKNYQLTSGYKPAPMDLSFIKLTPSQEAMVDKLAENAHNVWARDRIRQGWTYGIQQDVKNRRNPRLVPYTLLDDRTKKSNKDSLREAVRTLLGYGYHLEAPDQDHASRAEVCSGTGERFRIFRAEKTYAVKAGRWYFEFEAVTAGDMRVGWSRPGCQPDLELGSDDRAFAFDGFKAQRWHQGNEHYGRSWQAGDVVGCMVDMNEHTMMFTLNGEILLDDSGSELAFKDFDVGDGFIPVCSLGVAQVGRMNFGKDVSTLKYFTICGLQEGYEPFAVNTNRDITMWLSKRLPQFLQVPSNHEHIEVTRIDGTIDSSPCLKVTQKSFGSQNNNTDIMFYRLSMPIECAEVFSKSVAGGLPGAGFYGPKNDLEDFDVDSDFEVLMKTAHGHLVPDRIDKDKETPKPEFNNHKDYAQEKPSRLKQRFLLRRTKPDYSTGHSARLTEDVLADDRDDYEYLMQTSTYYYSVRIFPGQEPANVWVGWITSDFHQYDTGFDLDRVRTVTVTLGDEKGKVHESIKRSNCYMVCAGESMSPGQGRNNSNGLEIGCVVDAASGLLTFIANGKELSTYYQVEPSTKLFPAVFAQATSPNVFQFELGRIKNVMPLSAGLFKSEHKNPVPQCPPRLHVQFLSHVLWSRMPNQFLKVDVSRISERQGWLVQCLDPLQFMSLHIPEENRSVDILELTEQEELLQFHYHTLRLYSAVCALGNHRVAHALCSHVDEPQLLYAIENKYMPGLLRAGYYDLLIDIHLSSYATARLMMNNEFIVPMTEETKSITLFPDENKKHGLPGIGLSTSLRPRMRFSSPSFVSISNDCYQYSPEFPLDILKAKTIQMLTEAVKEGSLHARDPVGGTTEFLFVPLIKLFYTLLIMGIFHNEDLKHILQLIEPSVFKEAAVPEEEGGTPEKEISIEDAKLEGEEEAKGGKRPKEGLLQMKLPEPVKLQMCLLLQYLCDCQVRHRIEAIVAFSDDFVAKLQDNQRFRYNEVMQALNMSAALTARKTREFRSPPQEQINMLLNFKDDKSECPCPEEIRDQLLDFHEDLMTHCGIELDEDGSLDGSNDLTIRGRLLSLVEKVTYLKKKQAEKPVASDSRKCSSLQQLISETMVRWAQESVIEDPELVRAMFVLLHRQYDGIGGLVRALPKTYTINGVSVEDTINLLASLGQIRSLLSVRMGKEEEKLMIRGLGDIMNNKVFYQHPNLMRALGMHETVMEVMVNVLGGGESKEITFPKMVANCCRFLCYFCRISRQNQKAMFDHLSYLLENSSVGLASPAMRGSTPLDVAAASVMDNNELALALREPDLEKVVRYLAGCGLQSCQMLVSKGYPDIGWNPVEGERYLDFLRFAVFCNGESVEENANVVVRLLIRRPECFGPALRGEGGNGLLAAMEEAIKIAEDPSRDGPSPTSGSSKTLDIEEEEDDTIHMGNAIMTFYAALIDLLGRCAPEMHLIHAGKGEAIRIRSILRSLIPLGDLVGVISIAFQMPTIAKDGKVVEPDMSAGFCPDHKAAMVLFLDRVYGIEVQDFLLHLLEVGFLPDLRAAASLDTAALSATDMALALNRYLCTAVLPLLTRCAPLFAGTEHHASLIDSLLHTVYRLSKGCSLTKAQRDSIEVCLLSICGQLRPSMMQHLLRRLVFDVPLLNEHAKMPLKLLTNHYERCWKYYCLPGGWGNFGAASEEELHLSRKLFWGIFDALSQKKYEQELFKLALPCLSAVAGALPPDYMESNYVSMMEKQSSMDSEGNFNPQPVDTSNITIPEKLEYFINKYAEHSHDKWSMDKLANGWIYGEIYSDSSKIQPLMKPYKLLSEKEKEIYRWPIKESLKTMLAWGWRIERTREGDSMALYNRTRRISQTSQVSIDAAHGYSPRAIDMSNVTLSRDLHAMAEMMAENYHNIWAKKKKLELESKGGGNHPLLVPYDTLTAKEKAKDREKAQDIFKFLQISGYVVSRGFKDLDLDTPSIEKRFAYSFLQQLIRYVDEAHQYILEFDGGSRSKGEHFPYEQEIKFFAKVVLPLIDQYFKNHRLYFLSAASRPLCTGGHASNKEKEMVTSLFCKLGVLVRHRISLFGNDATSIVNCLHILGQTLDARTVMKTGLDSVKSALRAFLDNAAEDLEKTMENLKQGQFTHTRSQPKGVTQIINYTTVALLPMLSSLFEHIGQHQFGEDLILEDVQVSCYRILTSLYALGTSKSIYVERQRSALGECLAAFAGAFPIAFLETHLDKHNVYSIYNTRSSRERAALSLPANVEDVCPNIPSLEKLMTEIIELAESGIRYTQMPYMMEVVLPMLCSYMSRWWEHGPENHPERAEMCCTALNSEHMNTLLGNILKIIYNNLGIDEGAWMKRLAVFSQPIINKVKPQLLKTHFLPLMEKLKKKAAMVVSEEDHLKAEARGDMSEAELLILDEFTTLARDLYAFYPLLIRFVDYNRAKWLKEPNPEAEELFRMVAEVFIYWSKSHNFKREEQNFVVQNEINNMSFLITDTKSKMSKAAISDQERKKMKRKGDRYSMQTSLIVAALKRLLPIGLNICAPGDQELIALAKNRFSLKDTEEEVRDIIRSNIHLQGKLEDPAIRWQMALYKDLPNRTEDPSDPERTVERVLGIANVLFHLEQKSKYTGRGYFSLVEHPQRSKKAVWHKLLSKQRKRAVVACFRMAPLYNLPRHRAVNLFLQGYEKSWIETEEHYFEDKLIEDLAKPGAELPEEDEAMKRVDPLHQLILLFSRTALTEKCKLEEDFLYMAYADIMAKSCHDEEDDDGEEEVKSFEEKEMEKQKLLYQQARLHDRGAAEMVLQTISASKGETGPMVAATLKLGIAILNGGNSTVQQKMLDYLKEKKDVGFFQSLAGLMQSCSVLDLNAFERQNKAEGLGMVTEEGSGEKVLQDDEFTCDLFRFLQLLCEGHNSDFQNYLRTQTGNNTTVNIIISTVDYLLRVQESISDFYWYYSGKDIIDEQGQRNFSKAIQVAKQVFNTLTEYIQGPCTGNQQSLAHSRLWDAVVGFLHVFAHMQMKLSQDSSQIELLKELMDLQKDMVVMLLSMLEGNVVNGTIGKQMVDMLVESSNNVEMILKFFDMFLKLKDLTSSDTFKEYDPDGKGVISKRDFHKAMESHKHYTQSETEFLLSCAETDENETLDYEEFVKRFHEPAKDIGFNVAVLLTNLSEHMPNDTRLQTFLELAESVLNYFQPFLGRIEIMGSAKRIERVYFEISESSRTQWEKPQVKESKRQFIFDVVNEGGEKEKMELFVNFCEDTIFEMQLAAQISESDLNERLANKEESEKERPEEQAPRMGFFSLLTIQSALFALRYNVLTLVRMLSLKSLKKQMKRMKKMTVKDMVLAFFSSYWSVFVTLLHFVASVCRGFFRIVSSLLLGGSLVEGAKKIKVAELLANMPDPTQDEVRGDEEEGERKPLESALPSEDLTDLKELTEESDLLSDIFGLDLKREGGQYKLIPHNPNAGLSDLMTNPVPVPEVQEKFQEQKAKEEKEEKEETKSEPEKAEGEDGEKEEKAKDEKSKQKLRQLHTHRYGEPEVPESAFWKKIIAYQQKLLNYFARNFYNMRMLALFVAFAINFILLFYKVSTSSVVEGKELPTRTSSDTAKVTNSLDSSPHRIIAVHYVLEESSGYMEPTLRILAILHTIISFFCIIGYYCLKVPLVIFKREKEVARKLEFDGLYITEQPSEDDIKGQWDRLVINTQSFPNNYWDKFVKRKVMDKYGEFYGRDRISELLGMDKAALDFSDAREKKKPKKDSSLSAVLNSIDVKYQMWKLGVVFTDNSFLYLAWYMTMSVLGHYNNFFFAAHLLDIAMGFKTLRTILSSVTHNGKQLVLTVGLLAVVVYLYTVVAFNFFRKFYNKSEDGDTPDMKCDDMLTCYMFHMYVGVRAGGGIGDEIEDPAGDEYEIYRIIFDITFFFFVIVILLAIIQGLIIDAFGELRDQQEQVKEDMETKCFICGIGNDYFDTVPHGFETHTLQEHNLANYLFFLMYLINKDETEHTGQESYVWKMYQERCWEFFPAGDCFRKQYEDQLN
Description: FIGS. 3(A)-3(E) show a biological screen for cardiac ryanodine receptor (RyR2) activity. Note that ‘ent-24’=9, and ‘ent-18’ refers to structure 8 in FIG. 1, which is also the enantiomer of a natural product. (3A) Calcium spark frequency in permeabilized murine cardiomyocytes was recorded as an index of RyR2 activity. Compounds were screened at 25 uM concentration after 10-minute incubation. *=p<0.001 by one-way ANOVA with Tukey's post-hoc test. (3B) Incubation time was extended to 60 minutes for the 12- and 30-membered rings. (3C) The seco-acid precursors to 12- and 18-membered rings were tested at 25 uM. (3D) Concentration response curve for the 18-membered ring and (3E) 24-membered ring. Cells were incubated for 30 minutes
Activity of Ring-Size Analogues. […] Ventricular cardiomyocytes were isolated, permeabilized with saponin, and incubated with vehicle (DMSO) or 25 μM of selected compound. RyR2 activity was measured in the form of calcium sparks, which are elementary Ca^2+ release events generated by spontaneous openings of intracellular RyR2 Ca^2+ release channels. Importantly, saponin selectively permeabilizes the sarcolemmal membrane, leaving the SR membrane intact and ensuring equivalent access of the compounds to the SR membrane where RyR2 resides.
The compounds were first screened by incubating cardiomyocytes for 10 minutes at 25 μM concentration and compared to vehicle (DMSO) conditions.

[2] = biological target: T2, RyR2 (Sus scrofa, UniProt A0A5G2R1W3); settings: read-out: IC50, ryanodine binding assay (ent-1 comparison); cited from earlier work
T2 construct: isolated SR vesicles derived from porcine cardiac muscle; from tissue; host or cells: porcine heart (cardiac sarcoplasmic reticulum vesicles)

[3] = test system: Casq2-/- mice; settings: cited from earlier work
[4] = biological target: T1, RyR2; settings: read-out: IC50, intact cardiomyocyte assay (ent-1 comparison); cited from earlier work
[5] = cited from earlier work
[6] = test system: mammalian cardiac ryanodine receptor (RyR2); settings: cited from earlier work

Row | Substance | RyR2-mediated Ca2+ spark frequency ([1]; 25 μM, 10 minutes incubation, vs vehicle (DMSO)) | IC50 [2] [µM] | reduction in ventricular ectopy burden (ent-1) ([3]; 30 mg/kg, same arrhythmia induction protocol) [%] | antiarrhythmic efficacy in vivo (ent-1) ([3]; single dose study, 3 and 30 mg/kg i.p., Casq2-/- mice) | IC50 [4] [µM] | half-life of ent-1 ([5]; 3 mg/kg dose) [h] | half-life of ent-1 ([5]; 30 mg/kg dose) [h] | t1/2 of ent-1 ([5]; mice) [h] | RyR2-mediated spontaneous calcium release [6] | potency of inhibition of mammalian cardiac ryanodine receptor calcium release channels [6] | activity in the calcium spark assay (summary statement) [1]
1 | (+)-ent-verticilide [ent-1] | significantly inhibited | 0.1 | 70 | antiarrhythmic efficacy | 0.09 | 6.9 | 6.4 | 6.92 | significantly reduced | sub-micromolar potency | –
2 | (−)-nat-verticilide [reference compound] | – | – | – | – | – | – | – | – | no effect | – | none of these were active
